Source: PubChem BioAssay (NCI)
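In this assay, cells in 96-well plates receive the compound at five concentrations for 48 hours. Endpoints are linearly interpolated between the surrounding concentrations. At the GI50, growth is halved. At the TGI there is no net growth.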

Key:
Assay in all cases: inhibition of tumour cell growth, NCI panel, 48 h
786-0 renal = system: 786-0 renal
A498 renal = system: A498 renal
A549 NSCLC = system: A549 NSCLC
ACHN renal = system: ACHN renal
BT-549 breast = system: BT-549 breast
CAKI-1 renal = system: CAKI-1 renal
CCRF-CEM leukemia = system: CCRF-CEM leukemia
COLO 205 colon = system: COLO 205 colon
DU-145 prostate = system: DU-145 prostate
EKVX NSCLC = system: EKVX NSCLC
HCC-2998 colon = system: HCC-2998 colon
HCT-116 colon = system: HCT-116 colon
HCT-15 colon = system: HCT-15 colon
HL-60(TB) leukemia = system: HL-60(TB) leukemia
HOP-62 NSCLC = system: HOP-62 NSCLC
HOP-92 NSCLC = system: HOP-92 NSCLC
HS 578T breast = system: HS 578T breast
HT29 colon = system: HT29 colon
K-562 leukemia = system: K-562 leukemia
KM12 colon = system: KM12 colon
LOX IMVI melanoma = system: LOX IMVI melanoma
M14 melanoma = system: M14 melanoma
MALME-3M melanoma = system: MALME-3M melanoma
MCF7 breast = system: MCF7 breast
MDA-MB-231 breast = system: MDA-MB-231 breast
MDA-MB-435 = system: MDA-MB-435
MOLT-4 leukemia = system: MOLT-4 leukemia
NCI-H226 lung = system: NCI-H226 lung
NCI-H23 lung = system: NCI-H23 lung
NCI-H460 lung = system: NCI-H460 lung
NCI-H522 lung = system: NCI-H522 lung
NCI/ADR-RES ovarian = system: NCI/ADR-RES ovarian
OVCAR-3 ovarian = system: OVCAR-3 ovarian
OVCAR-4 ovarian = system: OVCAR-4 ovarian
OVCAR-5 ovarian = system: OVCAR-5 ovarian
OVCAR-8 ovarian = system: OVCAR-8 ovarian
PC-3 prostate = system: PC-3 prostate
RPMI-8226 leukemia = system: RPMI-8226 leukemia
RXF 393 renal = system: RXF 393 renal
SF-268 CNS = system: SF-268 CNS
SF-295 CNS = system: SF-295 CNS
SF-539 CNS = system: SF-539 CNS
SK-MEL-2 melanoma = system: SK-MEL-2 melanoma
SK-MEL-28 melanoma = system: SK-MEL-28 melanoma
SK-MEL-5 melanoma = system: SK-MEL-5 melanoma
SK-OV-3 ovarian = system: SK-OV-3 ovarian
SN12C renal = system: SN12C renal
SNB-19 CNS = system: SNB-19 CNS
SNB-75 CNS = system: SNB-75 CNS
SW-620 colon = system: SW-620 colon
T-47D breast = system: T-47D breast
TK-10 renal = system: TK-10 renal
U251 CNS = system: U251 CNS
UACC-257 melanoma = system: UACC-257 melanoma
UACC-62 melanoma = system: UACC-62 melanoma
UO-31 renal = system: UO-31 renal

For `CC(C)(C)OC(=O)NCCCCCCCCCCn1c2c(c3ccccc3c1=O)C(=O)c1ccccc1-2`, which GI50 (786-0 renal) is on record?
Its GI50 is 20.2 µM.

What about the TGI (786-0 renal) of the same compound?
The TGI was greater than 100 µM.

And the GI50 (A498 renal)?
Its GI50 is 26.2 µM.

What about the TGI (A498 renal) of the same compound?
Its TGI is 66 µM.

And the GI50 (A549 NSCLC)?
The GI50 was greater than 100 µM.

What about the TGI (A549 NSCLC) of the same compound?
The TGI was greater than 100 µM.

What about the GI50 (ACHN renal) of the same compound?
Its GI50 is 18.5 µM.

What about the TGI (ACHN renal) of the same compound?
Its TGI is 66 µM.

What about the GI50 (BT-549 breast) of the same compound?
Its GI50 is 57.5 µM.

What about the TGI (BT-549 breast) of the same compound?
The TGI was greater than 100 µM.

And the GI50 (CAKI-1 renal)?
The GI50 was 27.9 µM.

What about the TGI (CAKI-1 renal) of the same compound?
The TGI was greater than 100 µM.

What about the GI50 (CCRF-CEM leukemia) of the same compound?
Its GI50 is 20 µM.

What about the TGI (CCRF-CEM leukemia) of the same compound?
The TGI was greater than 100 µM.

And the GI50 (COLO 205 colon)?
Its GI50 is greater than 100 µM.

And the TGI (COLO 205 colon)?
Its TGI is greater than 100 µM.

What about the GI50 (DU-145 prostate) of the same compound?
The GI50 was 96.6 µM.

And the TGI (DU-145 prostate)?
Its TGI is greater than 100 µM.

What about the GI50 (EKVX NSCLC) of the same compound?
The GI50 was greater than 100 µM.

And the TGI (EKVX NSCLC)?
The TGI was greater than 100 µM.

What about the GI50 (HCC-2998 colon) of the same compound?
Its GI50 is greater than 100 µM.

And the TGI (HCC-2998 colon)?
Its TGI is greater than 100 µM.

And the GI50 (HCT-116 colon)?
Its GI50 is 60 µM.

And the TGI (HCT-116 colon)?
Its TGI is greater than 100 µM.

What about the GI50 (HCT-15 colon) of the same compound?
The GI50 was greater than 100 µM.

What about the TGI (HCT-15 colon) of the same compound?
Its TGI is greater than 100 µM.

What about the GI50 (HL-60(TB) leukemia) of the same compound?
Its GI50 is 32.6 µM.

And the TGI (HL-60(TB) leukemia)?
The TGI was greater than 100 µM.

And the GI50 (HOP-62 NSCLC)?
The GI50 was 29.1 µM.

And the TGI (HOP-62 NSCLC)?
Its TGI is greater than 100 µM.

And the GI50 (HOP-92 NSCLC)?
Its GI50 is 9.92 µM.

What about the TGI (HOP-92 NSCLC) of the same compound?
The TGI was 35.2 µM.

And the GI50 (HS 578T breast)?
The GI50 was 24.6 µM.

And the TGI (HS 578T breast)?
The TGI was greater than 100 µM.

And the GI50 (HT29 colon)?
The GI50 was greater than 100 µM.

And the TGI (HT29 colon)?
Its TGI is greater than 100 µM.

What about the GI50 (K-562 leukemia) of the same compound?
Its GI50 is 27.4 µM.

And the TGI (K-562 leukemia)?
The TGI was greater than 100 µM.

And the GI50 (KM12 colon)?
The GI50 was greater than 100 µM.

What about the TGI (KM12 colon) of the same compound?
The TGI was greater than 100 µM.

What about the GI50 (LOX IMVI melanoma) of the same compound?
The GI50 was greater than 100 µM.

What about the TGI (LOX IMVI melanoma) of the same compound?
The TGI was greater than 100 µM.

And the GI50 (M14 melanoma)?
The GI50 was greater than 100 µM.

What about the TGI (M14 melanoma) of the same compound?
The TGI was greater than 100 µM.

What about the GI50 (MALME-3M melanoma) of the same compound?
Its GI50 is greater than 100 µM.

And the TGI (MALME-3M melanoma)?
The TGI was greater than 100 µM.

And the GI50 (MCF7 breast)?
The GI50 was greater than 100 µM.

And the TGI (MCF7 breast)?
Its TGI is greater than 100 µM.

And the GI50 (MDA-MB-231 breast)?
The GI50 was 17.9 µM.

And the TGI (MDA-MB-231 breast)?
Its TGI is 85.9 µM.

And the GI50 (MDA-MB-435)?
Its GI50 is greater than 100 µM.

And the TGI (MDA-MB-435)?
Its TGI is greater than 100 µM.

And the GI50 (MOLT-4 leukemia)?
Its GI50 is 16.2 µM.

What about the TGI (MOLT-4 leukemia) of the same compound?
The TGI was 31.2 µM.

What about the GI50 (NCI-H226 lung) of the same compound?
Its GI50 is greater than 100 µM.

And the TGI (NCI-H226 lung)?
The TGI was greater than 100 µM.

What about the GI50 (NCI-H23 lung) of the same compound?
Its GI50 is 34.2 µM.

And the TGI (NCI-H23 lung)?
Its TGI is greater than 100 µM.

What about the GI50 (NCI-H460 lung) of the same compound?
Its GI50 is greater than 100 µM.

And the TGI (NCI-H460 lung)?
Its TGI is greater than 100 µM.

What about the GI50 (NCI-H522 lung) of the same compound?
The GI50 was 86.1 µM.

What about the TGI (NCI-H522 lung) of the same compound?
Its TGI is greater than 100 µM.

What about the GI50 (NCI/ADR-RES ovarian) of the same compound?
The GI50 was greater than 100 µM.

What about the TGI (NCI/ADR-RES ovarian) of the same compound?
The TGI was greater than 100 µM.

What about the GI50 (OVCAR-3 ovarian) of the same compound?
The GI50 was greater than 100 µM.

And the TGI (OVCAR-3 ovarian)?
Its TGI is greater than 100 µM.

And the GI50 (OVCAR-4 ovarian)?
Its GI50 is greater than 100 µM.

And the TGI (OVCAR-4 ovarian)?
Its TGI is greater than 100 µM.

What about the GI50 (OVCAR-5 ovarian) of the same compound?
The GI50 was greater than 100 µM.

And the TGI (OVCAR-5 ovarian)?
The TGI was greater than 100 µM.

And the GI50 (OVCAR-8 ovarian)?
Its GI50 is 89.9 µM.

And the TGI (OVCAR-8 ovarian)?
The TGI was greater than 100 µM.

What about the GI50 (PC-3 prostate) of the same compound?
Its GI50 is greater than 100 µM.

And the TGI (PC-3 prostate)?
The TGI was greater than 100 µM.

What about the GI50 (RPMI-8226 leukemia) of the same compound?
The GI50 was 79.7 µM.

And the TGI (RPMI-8226 leukemia)?
The TGI was greater than 100 µM.

And the GI50 (RXF 393 renal)?
The GI50 was 13 µM.

What about the TGI (RXF 393 renal) of the same compound?
Its TGI is 37.4 µM.

And the GI50 (SF-268 CNS)?
Its GI50 is 21.9 µM.

What about the TGI (SF-268 CNS) of the same compound?
The TGI was greater than 100 µM.

What about the GI50 (SF-295 CNS) of the same compound?
The GI50 was 30.9 µM.

And the TGI (SF-295 CNS)?
The TGI was greater than 100 µM.

And the GI50 (SF-539 CNS)?
Its GI50 is 43.1 µM.

What about the TGI (SF-539 CNS) of the same compound?
Its TGI is greater than 100 µM.

And the GI50 (SK-MEL-2 melanoma)?
The GI50 was 21.1 µM.

And the TGI (SK-MEL-2 melanoma)?
The TGI was 49.7 µM.

And the GI50 (SK-MEL-28 melanoma)?
Its GI50 is greater than 100 µM.

What about the TGI (SK-MEL-28 melanoma) of the same compound?
The TGI was greater than 100 µM.

What about the GI50 (SK-MEL-5 melanoma) of the same compound?
The GI50 was greater than 100 µM.

What about the TGI (SK-MEL-5 melanoma) of the same compound?
The TGI was greater than 100 µM.

What about the GI50 (SK-OV-3 ovarian) of the same compound?
The GI50 was 40.3 µM.

And the TGI (SK-OV-3 ovarian)?
The TGI was greater than 100 µM.

What about the GI50 (SN12C renal) of the same compound?
The GI50 was greater than 100 µM.

And the TGI (SN12C renal)?
Its TGI is greater than 100 µM.

And the GI50 (SNB-19 CNS)?
The GI50 was 44.1 µM.

And the TGI (SNB-19 CNS)?
The TGI was greater than 100 µM.

What about the GI50 (SNB-75 CNS) of the same compound?
The GI50 was 5.92 µM.

What about the TGI (SNB-75 CNS) of the same compound?
Its TGI is 28.6 µM.

What about the GI50 (SW-620 colon) of the same compound?
The GI50 was greater than 100 µM.

And the TGI (SW-620 colon)?
Its TGI is greater than 100 µM.

What about the GI50 (T-47D breast) of the same compound?
Its GI50 is greater than 100 µM.

What about the TGI (T-47D breast) of the same compound?
Its TGI is greater than 100 µM.

What about the GI50 (TK-10 renal) of the same compound?
Its GI50 is 20.3 µM.

And the TGI (TK-10 renal)?
The TGI was 52.1 µM.

What about the GI50 (U251 CNS) of the same compound?
The GI50 was 29 µM.

What about the TGI (U251 CNS) of the same compound?
Its TGI is greater than 100 µM.

And the GI50 (UACC-257 melanoma)?
Its GI50 is greater than 100 µM.

And the TGI (UACC-257 melanoma)?
The TGI was greater than 100 µM.

And the GI50 (UACC-62 melanoma)?
The GI50 was 43.9 µM.

What about the TGI (UACC-62 melanoma) of the same compound?
The TGI was greater than 100 µM.

And the GI50 (UO-31 renal)?
Its GI50 is greater than 100 µM.

What about the TGI (UO-31 renal) of the same compound?
Its TGI is greater than 100 µM.
